According to patent US7776597B2, “Method of inducing embryonic stem cells into pancreatic cells” (Beijing Hua Yuan Bo Chuang Technology Limited, priority 2005, dated 2010):

B1: activin A: a member of TGF-β superfamily; disulfide-stabilized protein (protein, UniProt P08476 311-426, looked up)
Inhibin beta A chain: GLECDGKVNICCKKQFFVSFKDIGWNDWIIAPSGYHANYCEGECPSHIAGTSGSSLSFHSTVINHYRMRGHSPFANLKSCCVPTKLRPMSMLYYDDGQNIIKKDIQNMIVEECGCS

What was measured:
ES-R1 cells [1] = experiment: Cell cluster formation on coated dishes during three-step induction; assay type: cell-based, mice; settings: dish coating matrix, third step of induction
Description: (§1) Step 1, to induce embryonic body (EB) formation, ES cells were dissociated with trypsin and suspended into Petri dishes (Alpha medical instrument) with 10% FBS/DMEM without LIF. After 24 to 48 hours (See FIG. 1B), EBs were collected and re-plated into 10% FBS/DMEM without LIF in 1% Matrigel (BD Biosciences) coated dishes. Two hours later, EBs began to spread onto the dishes and were cultured in 10% FBS/DMEM with 100 ng/ml activin A (Sigma) for 24 hours. Then EBs were switched to 10% FBS/DMEM for 6-8 hours as an interval. After this interval, the differentiated EB cells were cultured in 10% FBS/DMEM with 10^−6 M RA (Sigma) for another 24 hours.
(§2) Step 3, to mature the insulin producing cells, the expanded cells in step 2 were switched to DMEM/F12 (Gibco-BRL) with N2 supplement (1:100, Gibco-BRL), B27 supplement (1:50 Gibco-BRL), 1 μg/ml Laminin (Sigma), 10 ng/ml bFGF (Sigma) and 10 mM nicotinamide (Sigma) and cultured for 3-5 days (Lumelsky N, Blondel O, Laeng P, et al. Differentiation of embryonic stem cells to insulin-secreting structures similar to pancreatic islets. Science 2001; 292:1389-1394.) The morphology of cells was observed under a Nikon phase-contrast microscope (TS-100).

ES-R1 cells [2] = experiment: RT-PCR analysis of marker gene expression in differentiated mouse ES cells; assay type: cell-based, mice; settings: end of step 2
Description: as §1, §2
Total RNA was extracted by Catrimox-14 kit (TaKaRa) from the cells in step 2 or step 3 which were induced by both with and without activin A and RA or with only one of them. […]

Molecule | cell cluster formation (ES-R1 cells [1]) | marker genes expressed (RT-PCR) (ES-R1 cells [2])
laminin | no cell clusters formed | –
CC1=C(/C=C/C(C)=C/C=C/C(C)=C/C(=O)O)C(C)(C)CCC1 [RA, All-trans retinoic acid] | – | express only hnf3β
B1 | – | mainly express hnf3β and pdx-1
